Experimental data from US5811073A, “Method for radioisotopic detection and localization of inflammation in a host” (President and Fellows of Harvard College, priority 1995, dated 1998).

Key:
[1] = Total photon efficiency of gamma camera; type: physicochemical
Protocol: For use in calculating dosages, the relative photon efficiencies of ^123 IUdR and of gallium-67 were determined.
Total Photon Efficiency of Gamma Camera
With Respect to ^123 IUdR and gallium-67
keV* Frequency X Efficiency

[2] = tested on: bacterial (E. coli) inflammatory lesions (pus capsule); assay: Gamma camera imaging of rats with bacterial infection; type: in vivo; parameters: key to Figure of Merit (FOM), equation (1): FOM=(At-Ab)^2/(At+Ab), from total counts target vs background; settings: i.v.; for Figure of Merit (FOM), equation (1): 0.2 mCi ^67 Ga-citrate (n=3); for Figure of Merit (FOM), equation (1) / Pus Capsule to Contralateral Tissue (T/B) Ratio, gamma camera imaging: 1.5 mCi/rat ^123 IUdR (n=4); for Figure of Merit (FOM), equation (1) / Pus Capsule to Contralateral Tissue (T/B) Ratio, gamma camera imaging / Figure of Merit (FOM), equation (2): mean ± SD; for Pus Capsule to Contralateral Tissue (T/B) Ratio, gamma camera imaging: 0.2 mCi/rat ^67 Ga (n=3); for Figure of Merit (FOM), equation (2): n=3 (^67 Ga), n=4 (^123 IUdR)
Protocol: A frozen sample of E. coli bacteria (clinical isolate; ATCC 9339) was used to inoculate a 10 ml trypticase soy medium (trypticase soy broth, BBL #11768, 30 g/L water), and the tube was incubated overnight at […] This culture was used to grow single colonies by streaking the sample on agar plates (100 mm petri dishes each containing 15 ml of […] in the same medium). Good colonies develop in 10-11 hours at 37° C. The agar plates containing bacterial colonies were stored upside down at 4° C. A single colony of bacteria from the agar plate was used to inoculate 10 ml trypticase soy medium, and the tube was incubated overnight at 37° C. with vigorous shaking. Two ml of this overnight culture was transferred into 100 ml trypticase soy medium and the sample incubated at 37° C. with vigorous shaking until the culture reached an OD600 of ~0.8 (in about 2 hrs). This 100 ml culture contained ~6.4×10^10 bacterial cells (1 OD600 =8×10^8 cells/ml).
The culture was centrifuged at 5500 rpm for 5 min at 4° C. in a Sorvall SS-34 rotor, the bacterial pellet resuspended in saline to give ~2.5×10^9 bacteria/ml, and 0.1 ml of resuspended cells injected into the left thigh muscle of each anesthetized rat.
A further set of rats prepared as described in Examples 1 and 2 received intravenous injections of either ^123 IUdR (at a dose of about 1.5 mCi/rat) or gallium-67 citrate (at a dose of about 0.2 mCi/rat). After 1, 3 and 24 hours, rats from each group were anesthetized and imaged using a gamma camera (the General Electric STARCAM™ 400 fitted with parallel hole medium collimator). Anterior images were obtained 10^6 counts/frame except for the 24 h period for ^123 IUdR where a 15 min scan was carried out. A 20% window was present over the 159 keV photopeaks of ^67 Ga (93 kev, 184 keV, and 298 keV).
Regions of interest (ROI) were drawn over the inflamed areas (3×4 pixel) and over the contralateral area in each rat. Total counts in these regions were used to calculate Target to Background (T/B) ratios and to calculate Figure of Merit (FOM; statistical significance) values using either of the following equations:
FOM=(At -Ab)^2 /(At +Ab) (1)
At =counts in ROI (3×4) over pus capsule; and
Ab =counts in ROI (3×4) over contralateral muscle.
Equation (1) is derived from the Report of the National Council on Radiation Protection and Measurements, Nuclear Medicine, "Factors Influencing the Choice and Use of Radionuclides in Diagnosis and Therapy", Report No. 70, p.79 (NRCP, Bethesda, Md., 1982). Equation (2) is derived from Rubin et al., J. Nucl. Med. 30:385-389, 1989. For purposes of reference, the disclosures of each of these publications is incorporated herein.

Compound: O=C([O-])CC(O)(CC(=O)[O-])C(=O)[O-].[67Ga+3] [^67 Ga, gallium-67 citrate]
- Total Photon Efficiency ([1]; 91.3 keV): 0.0296
- Total Photon Efficiency ([1]; 93.3 keV): 0.37
- Total Photon Efficiency ([1]; 184.6 keV): 0.1326
- Total Photon Efficiency ([1]; 209 keV): 0.01515
- Total Photon Efficiency ([1]; 300.2 keV): 0.0415
- Total Photon Efficiency ([1]; sum over photopeaks (^67 Ga), 159 keV (^123 I)): 0.59
- detection of the lesion in scintigraphic images (in words) ([2]; 1, 3, and 24 h): can clearly detect the lesion
- Figure of Merit (FOM), equation (1) ([2]; 1 h): 49 ± 60
- Pus Capsule to Contralateral Tissue (T/B) Ratio, gamma camera imaging ([2]; 1 h): 1.26 ± 0.09
- Figure of Merit (FOM), equation (2) ([2]; 1 h): 0.26 ± 0.11
- Figure of Merit (FOM), equation (1) ([2]; 3 h): 306 ± 210
- Pus Capsule to Contralateral Tissue (T/B) Ratio, gamma camera imaging ([2]; 3 h): 2.01 ± 0.24
- Figure of Merit (FOM), equation (2) ([2]; 3 h): 1.01 ± 0.29
- Figure of Merit (FOM), equation (1) ([2]; 24 h): 231 ± 135
- Pus Capsule to Contralateral Tissue (T/B) Ratio, gamma camera imaging ([2]; 24 h): 1.91 ± 0.15
- Figure of Merit (FOM), equation (2) ([2]; 24 h): 0.90 ± 0.21
